According to patent publication US10980900B2, “Imaging of meningiomas using phenylbenzothiazole, stilbene, or biphenylalkyne derivatives” (MAYO FOUNDATION FOR MEDICAL EDUCATION AND RESEARCH, priority 2010, dated 2021):
“Also recorded” adds a separate entry of the source.

Columns and labels:
[1] = tested on: meningioma tissue sections; experiment: Fluorescent PiB / 6-CN-PiB staining of meningioma tissue sections; type: binding, human
From the text: (§1) The Department of Pathology, Mayo Clinic Rochester Tumor Tissue Registry, contains tumor samples procured by autopsy and surgery. Meningiomas, brain metastases and other tumors were identified by searching CoPath, a Mayo Clinic electronic pathology database of tumors collected since 1982. Tumor type was confirmed by viewing H&E stained slides under a light microscope.
Fresh cut 5 μm thick sections were used. Each staining run included normal brain and Alzheimer diseased brain as controls. Fluorescent tissue staining and microscopy was performed similar to methods previously described at Ikonomovic M D, Klunk W E, Abrahamson E E, et al., “Post-mortem correlates of in vivo PiB-PET amyloid imaging in a typical case of Alzheimer's disease”, Brain: A Journal Of Neurology 2008; 131:1630-45. Meningioma and other brain tumor sections were stained with 100 nM CN-PiB, 100 nM of unlabeled PiB or with saline alone as a negative control. The staining protocol was as follows: deparaffinization and rehydration, 0.25% KMnO4 incubation, water wash, 1% K2S2O5/1% Oxalic Acid incubation, water wash, PBS wash, 6-CN-PiB/PiB/saline incubation, PBS wash, NaCl, K2HPO4, and KH2PO4 incubation, water wash, mount coverslip, and storage at 4° C. in the dark until imaged. Slides were imaged within five days of staining.
Tissue stain images were obtained on a Zeiss 510 confocal microscope with excitation at 405 nm, a 420-480 bandpass filter, and the laser set at 15% power. Images were obtained with a C-Apochromat 40×/1.2 W lens.

[2] = tested on: other intracranial tumors (schwannoma, metastasis) tissue sections; experiment: Fluorescent 6-CN-PiB staining of other intracranial tumor tissue sections; type: binding, human; details: some other tumors, different staining pattern
From the text: as §1
Fresh cut 5 μm thick sections were used. Each staining run included normal brain and Alzheimer diseased brain as controls. Fluorescent tissue staining and microscopy was performed similar to methods previously described at Ikonomovic M D, Klunk W E, Abrahamson E E, et al., “Post-mortem correlates of in vivo PiB-PET amyloid imaging in a typical case of Alzheimer's disease”, Brain: A Journal Of Neurology 2008; 131:1630-45. Meningioma and other brain tumor sections were stained with 100 nM CN-PiB, 100 nM of unlabeled PiB or with saline alone as a negative control. The staining protocol was as follows: deparaffinization and rehydration, 0.25% KMnO4 incubation, water wash, 1% K2S2O5/1% Oxalic Acid incubation, water wash, PBS wash, 6-CN-PiB/PiB/saline incubation, PBS wash, NaCl, K2HPO4, and KH2PO4 incubation, water wash, mount coverslip, and storage at 4° C. in the dark until imaged. Slides were imaged within five days of staining. […]

[3] = tested on: meningiomas; experiment: FDG PET/CT imaging of meningiomas in patients; type: in vivo, human
From the text: (§2) An Alzheimer's imaging database of two hundred forty-one patients was reviewed. […] MRI reports of all patients were reviewed for possible meningiomas and other tumors. […] Tumors smaller than 7 millimeters are generally considered too small to be evaluated by PET or PET/CT.
(§3) The radiologic interpretations of MRI, CT and FDG PET/CT scans from a population of 834 people who participated in the population-based Mayo Clinic Study of Aging (MCSA) from March 2006 through September 2011 were reviewed for the presence of tumors or other brain lesions. (See, Kantarci K, Lowe V, Przybelski S A, et al., “Magnetic resonance spectroscopy, {beta}-amyloid load, and cognition in a population-based sample of cognitively normal older adults”, Neurology 2011; 77:951-8; and Roberts R O, Geda Y E, Knopman D S, et al., “The Mayo Clinic Study of Aging: design and sampling, participation, baseline measures and sample characteristics”, Neuroepidemiology 2008; 30:58-69.) Participants were randomly selected for recruitment in the MCSA from a population of older adult residents of Olmsted County, Minn., USA. Those with neurological, psychological or systemic illnesses were not excluded. Individuals with dementia, or those unable to be imaged for medical reasons were excluded. All patients were imaged with C11-PiB PET/CT, F18-FDG PET/CT and non-contrast MRI at least once as part of the study. Any additional patient imaging and clinical history was then reviewed.
(§4) PET imaging was performed as part of the Mayo Clinic Study of Aging as previously described. (See Kantarci K, Lowe V, Przybelski S A, et al., “Magnetic resonance spectroscopy, {beta}-amyloid load, and cognition in a population-based sample of cognitively normal older adults”, Neurology 2011; 77:951-8.) PiB PET/CT, then FDG PET/CT were performed on the same day. PET/CT imaging was performed on a 690XT or DRX PET/CT tomograph (GE Healthcare). […] Cerebral PiB retention, a marker of amyloid deposition, was measured as previously described. […]

[4] = tested on: non-meningioma tumors; experiment: FDG PET/CT imaging of non-meningioma tumors in patients; type: in vivo, human
From the text: as §2, §3, §4

[5] = tested on: meningiomas; experiment: PiB PET/CT imaging of meningiomas in patients; type: in vivo, human
From the text: (§5) An Alzheimer's imaging database of two hundred forty-one patients was reviewed. […] All patients had been imaged by at least one MRI, as well as by FDG-PET/CT and PET/CT using the compound of formula (V). MRI reports of all patients were reviewed for possible meningiomas and other tumors. […] The diagnostic confidence of the radiologists interpreting the studies varied slightly, depending on factors such as tumor location and previous imaging. […] Tumors smaller than 7 millimeters are generally considered too small to be evaluated by PET or PET/CT. This is an excepted limitation of PET or PET/CT as a modality. […] None of the meningiomas in the series would be classified as atypical or aggressive based on MRI or CT imaging. One presumed extracranial schwannoma was seen, showing mild uptake on FDG-PET/CT, but no uptake on PET/CT using the compound of formula (V).
as §3
Tumors found in any of the subjects were then categorized as possible meningiomas or non-meningiomas based on the reading of the reporting neuroradiologist. Possible meningiomas were further reviewed as a group. A more strict set of criteria were applied to select a subset of the possible meningiomas that were designated “high-likelihood meningiomas” for further analysis and were defined by (1) tumors that were confirmed to be enhancing on diagnostic MRI (obtained separately for clinical purposes) and (2) tumors that had greater than two years of follow-up imaging confirming no growth or slow growth (1-2 mm per year). When the lead diagnosis of the identified tumor was metastasis, the diagnosis was confirmed by biopsy or autopsy. All tumors smaller than 5 mm thick were excluded, given they fall below the generally accepted lower limits of PET/CT resolution.
PET imaging was performed as part of the Mayo Clinic Study of Aging as previously described. (See Kantarci K, Lowe V, Przybelski S A, et al., “Magnetic resonance spectroscopy, {beta}-amyloid load, and cognition in a population-based sample of cognitively normal older adults”, Neurology 2011; 77:951-8.) PiB PET/CT, then FDG PET/CT were performed on the same day. PET/CT imaging was performed on a 690XT or DRX PET/CT tomograph (GE Healthcare). The PET sinograms were reconstructed using a fully-3D OSEM algorithm into a 30 cm field of view; the pixel size was 1.2 mm and the slice thickness was 3.27 mm (DRX) or 1.96 mm (690XT). CT imaging was obtained immediately prior to PET acquisition and used for attenuation correction. Cerebral PiB retention, a marker of amyloid deposition, was measured as previously described. (See Kantarci K, Lowe V, Przybelski S A, et al. “Magnetic resonance spectroscopy, {beta}-amyloid load, and cognition in a population-based sample of cognitively normal older adults”, Neurology 2011; 77:951-8.) […]

[6] = tested on: non-meningioma tumors and lesions; experiment: PiB PET/CT imaging of non-meningioma tumors and lesions in patients; type: in vivo, human
From the text: as §5, §3
Tumors found in any of the subjects were then categorized as possible meningiomas or non-meningiomas based on the reading of the reporting neuroradiologist. Possible meningiomas were further reviewed as a group. […]
PET imaging was performed as part of the Mayo Clinic Study of Aging as previously described. […] Cerebral PiB retention, a marker of amyloid deposition, was measured as previously described. […]

[7] = PiB PET/CT activity in normal tissues near the tumors; type: in vivo, human
From the text: as §3
PET imaging was performed as part of the Mayo Clinic Study of Aging as previously described. (See Kantarci K, Lowe V, Przybelski S A, et al., “Magnetic resonance spectroscopy, {beta}-amyloid load, and cognition in a population-based sample of cognitively normal older adults”, Neurology 2011; 77:951-8.) PiB PET/CT, then FDG PET/CT were performed on the same day. PET/CT imaging was performed on a 690XT or DRX PET/CT tomograph (GE Healthcare). The PET sinograms were reconstructed using a fully-3D OSEM algorithm into a 30 cm field of view; the pixel size was 1.2 mm and the slice thickness was 3.27 mm (DRX) or 1.96 mm (690XT). CT imaging was obtained immediately prior to PET acquisition and used for attenuation correction. Cerebral PiB retention, a marker of amyloid deposition, was measured as previously described. […]

[8] = meningiomas 5 mm and thicker vs all other tumors in the 834 patient population

CNc1ccc(-c2nc3ccc(C#N)cc3s2)cc1 [Formula 6-CN-PiB]
fluorescent staining ([1]; WHO grade I meningothelial meningioma (FIG. 6 Panel D), 100 nM): positively; also recorded: intense fluorescence
staining brightness vs other intracranial tumors ([1]; all meningiomas (n=7) vs other intracranial tumors (n=6)): qualitatively brighter
6-CN-PiB binding [2]: Moderate

Fluorodeoxyglucose [FDG]
FDG activity ([3]; 2.6 cm thick meningioma of right tentorium (FIG. 3)): only trace
FDG PET activity ([3]; meningioma in FIG. 4 panels G-I): increased
FDG activity ([3]; seven of the 16 high-likelihood meningiomas): moderate to high
FDG PET activity ([4]; melanoma and small cell lung cancer metastases (FIG. 4)): increased
result on FDG PET/CT ([4]; melanoma metastasis case, initial imaging): positive
result on FDG PET/CT ([4]; pituitary macroadenoma (FIG. 5 Panel B)): positive

[11CH3]Nc1ccc(-c2nc3ccc(O)cc3s2)cc1 [Formula (V), [N-Methyl-^11C]2-(4′-methylaminophenyl)-6-hydroxybenzothiazole]
SUVmax (by body weight), range ([5]; 16 high-likelihood meningiomas, PiB PET/CT): 1.4-3.6
result on repeat PET/CT imaging ([5]; Example 3: one patient imaged two times, many months in between): same positive results
activity at the meningioma on PET and CT images ([5]; Patient #1, mass along right tentorium cerebelli (FIG. 1)): intense activity
activity at the meningioma on PET and CT images ([5]; Patient #4, mass along tuberculum sellae and planum sphenoidale (FIG. 2)): intense activity
result on PiB PET/CT imaging ([5]; all 16 high-likelihood meningiomas): clearly diagnostically positive
PiB activity relative to normal adjacent tissues ([5]; all 16 meningiomas identified by strict imaging criteria): greater than normal adjacent tissues
sensitivity of PiB PET/CT for meningiomas [5, 8]: 100%
specificity of PiB PET/CT for meningiomas [5, 8]: 100%
SUVmax of meningioma on repeat imaging ([5]; two patients imaged with PiB PET/CT more than once): stable or increasing
PiB activity relative to normal adjacent tissue ([6]; all other intracranial tumors imaged (metastases, pituitary macroadenomas, schwannomas, ependymoma)): equal or less than normal adjacent tissue
result on PiB PET/CT ([6]; both intracranial metastases (FIG. 4), pathologically confirmed): negative
result on research PiB PET/CT ([6]; melanoma metastasis case): negative
PiB activity ([6]; non-tumorous lesions (strokes, arachnoid cysts, multiple sclerosis lesions)): only trace
average PiB activity, SUVmax ([7]; nearby normal bone): 0.6
average PiB activity, SUVmax ([7]; nearby normal grey matter): 1.1
average background PiB activity, SUVmax ([7]; surrounding cerebrospinal fluid): 0.2
staining of tissue sections ([1]; tissue sections from meningiomas, 100 nM unlabeled PiB): brightly positive
